In patent US20240287138A1, “CYCLIC PEPTIDES FOR INHIBITING TNF RECEPTOR 1 ACTIVITY” (Merck Sharp & Dohme LLC, priority 2023, published 2024):
Numbered stars: 1 amine (or outer) side, 2 acyl side, 3 side chain; on linkers, the order of the positions; unused ones are H or OH. Bridge positions count the residues as written; N and C are the ends. Square brackets hold non-standard residues; d marks the D form. Peptide text beside a SMILES is read from it. * marks the point of attachment. Trp(βS-Me,7-OMe) = COc1cccc2c([C@H](C)[C@H](N)C(=O)O)c[nH]c12; Trp(7-Cl) = N[C@@H](Cc1c[nH]c2c(Cl)cccc12)C(=O)O; Phe(3-CONH2) = NC(=O)c1cccc(C[C@H](N)C(=O)O)c1; Phe(4-CONH2) = NC(=O)c1ccc(C[C@H](N)C(=O)O)cc1; Phe(4-COOH) = N[C@@H](Cc1ccc(C(=O)O)cc1)C(=O)O; Trp(7-aza) = N[C@@H](Cc1c[nH]c2ncccc12)C(=O)O; dPro(4S-NH2) = N[C@@H]1CN[C@@H](C(=O)O)C1; Pip(5R-OH) = O=C(O)[C@@H]1CC[C@@H](O)CN1; X1 = O=C([C@@H]1CC[C@H](N[*:1])C1)[*:2]; X19 = O=C([C@H](Cc1ccncn1)N[*:1])[*:2]; Isoxazole(3-carbonyl) = O=C(c1ccon1)*; Pip(4-aza) = O=C(O)[C@@H]1CNCCN1; 4Pal = N[C@@H](Cc1ccncc1)C(=O)O; NMeE = CN[C@@H](CCC(=O)O)C(=O)O; dHyp = O=C(O)[C@H]1C[C@H](O)CN1; X7 = CC[C@@H](C(=O)[*:1])[*:2]; αMeS = C[C@](N)(CO)C(=O)O; Nle = CCCC[C@H](N)C(=O)O; Dab = NCC[C@H](N)C(=O)O; Sar = CNCC(=O)O

Key:
[1] = target: T1, human soluble TNFR1 (sTNFR1) (Homo sapiens, UniProt P19438); experiment: Human sTNFR1-peptide displacement assay (LanthaScreen Eu TR-FRET binding assay)
T1 construct: made in house; host or cells: Sf21 (baculovirus)
T1 sequence (P19438 with tags, fused parts or gaps): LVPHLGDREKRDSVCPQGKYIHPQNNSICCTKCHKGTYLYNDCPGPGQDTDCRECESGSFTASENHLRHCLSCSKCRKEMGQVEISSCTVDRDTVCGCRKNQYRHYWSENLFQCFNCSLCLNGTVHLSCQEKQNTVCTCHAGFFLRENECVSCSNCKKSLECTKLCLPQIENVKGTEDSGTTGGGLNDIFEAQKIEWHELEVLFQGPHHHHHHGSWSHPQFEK
Method in brief: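 Readout is the 665/615 nm TR-FRET ratio (Eu anti-His donor, streptavidin-Alexa647 acceptor), normalized to DMSO and saturating displacer, fit by Morrison-based five-parameter logistic for Kd^app. His-tagged sTNFR1 (1-211) prebound to 100 nM biotinylated peptide SEQ ID NO.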

[2] = target: T2, human TNFR2 ECD protein (Homo sapiens, UniProt P20333); experiment: SPR off-target binding (selectivity) to human TNFR2 ECD
T2 construct: HRV 3C protease cleavage site (C); 6His (C, cleaved yes); made in house; host or cells: Sf21 insect cells (baculovirus), secreted
T2 sequence (P20333 23-257): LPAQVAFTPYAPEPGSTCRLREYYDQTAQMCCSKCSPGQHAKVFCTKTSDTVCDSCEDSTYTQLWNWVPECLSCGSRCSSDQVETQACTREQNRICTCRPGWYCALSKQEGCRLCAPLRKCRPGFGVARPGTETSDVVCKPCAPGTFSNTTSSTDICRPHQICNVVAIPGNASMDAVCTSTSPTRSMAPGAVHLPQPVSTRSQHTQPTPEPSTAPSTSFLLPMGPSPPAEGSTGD
Method in brief: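 Peptide binding kinetics read by SPR in HEPES pH 7.4 running buffer with 2% DMSO, with TNFR2 ECD tested in parallel for off-target binding. Receptor ECDs, insect-cell expressed and biotinylated at C-terminal avi-tag, were captured via streptavidin. KA derived from association and dissociation rate constants.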

Row | SMILES | Kd [1] [nM] | Kd [2] [nM] | IC50 [1] [nM]
1 | CCCC[C@@H]1NC(=O)[C@@H]2CC[C@@H](C2)NC(=O)[C@H]([C@@H](C)c2c[nH]c3c(OC)cccc23)NC(=O)CN(C)C(=O)[C@H](Cc2ccc(C(=O)O)cc2)NC(=O)[C@H](Cc2ccc(C(N)=O)cc2)NC(=O)[C@](C)(CO)NC(=O)[C@H](Cc2c[nH]c3c(Cl)cccc23)NC(=O)[C@H](Cc2ccncn2)NC(=O)[C@H](CC(N)=O)NC(=O)[C@H]2C[C@H](O)CN2C(=O)[C@H](Cc2c[nH]c3ncccc23)NC(=O)[C@@H]2CC[C@@H](O)CN2C(=O)[C@H](Cc2ccncc2)NC1=O [SEQ ID NO. 159] (cyclo([4Pal][Pip(5R-OH)][Trp(7-aza)][dHyp]N[X19][Trp(7-Cl)][αMeS][Phe(4-CONH2)][Phe(4-COOH)][Sar][Trp(βS-Me,7-OMe)][X1][Nle])) | 0.12 | > 1000 | 
2 | CCCC[C@@H]1NC(=O)[C@@H]2CC[C@@H](C2)NC(=O)[C@H]([C@@H](C)c2c[nH]c3c(OC)cccc23)NC(=O)CN(C)C(=O)[C@H](Cc2ccc(O)cc2)NC(=O)[C@H](Cc2ccc(C(=O)O)cc2)NC(=O)[C@](C)(CO)NC(=O)[C@H](Cc2c[nH]c3c(Cl)cccc23)NC(=O)[C@H](Cc2ccncc2)NC(=O)[C@H](CC(N)=O)NC(=O)[C@H]2C[C@H](N)CN2C(=O)[C@H](Cc2c[nH]c3ccccc23)NC(=O)[C@@H]2CNCCN2C(=O)[C@H](Cc2ccncc2)NC1=O [SEQ ID NO. 161] (cyclo([4Pal][Trp(7-Cl)][αMeS][Phe(4-COOH)]Y[Sar][Trp(βS-Me,7-OMe)][X1][Nle][4Pal][Pip(4-aza)]W[dPro(4S-NH2)]N)) | 0.09 | > 1000 | 
3 | CCCC[C@@H]1NC(=O)[C@@H]2CC[C@@H](C2)NC(=O)[C@H]([C@@H](C)c2c[nH]c3c(OC)cccc23)NC(=O)CN(C)C(=O)[C@H](Cc2ccc(O)cc2)NC(=O)[C@H](Cc2ccc(C(N)=O)cc2)NC(=O)[C@](C)(CO)NC(=O)[C@H](Cc2c[nH]c3c(Cl)cccc23)NC(=O)[C@H](Cc2ccncc2)NC(=O)[C@H](CC(N)=O)NC(=O)[C@H](CCC(=O)O)N(C)C(=O)[C@H](Cc2c[nH]c3ccccc23)NC(=O)[C@@H]2CC[C@@H](O)CN2C(=O)[C@H](Cc2ccncc2)NC1=O [SEQ ID NO. 163] (cyclo([4Pal][Trp(7-Cl)][αMeS][Phe(4-CONH2)]Y[Sar][Trp(βS-Me,7-OMe)][X1][Nle][4Pal][Pip(5R-OH)]W[NMeE]N)) | 0.05 | > 1000 | 
4 | CCCC[C@@H]1NC(=O)[C@H](CC)SC[C@@H](C(N)=O)NC(=O)[C@H]([C@@H](C)c2c[nH]c3c(OC)cccc23)NC(=O)CN(C)C(=O)[C@H](Cc2ccc(O)cc2)NC(=O)[C@H](Cc2ccc(C(N)=O)cc2)NC(=O)[C@](C)(CO)NC(=O)[C@H](Cc2c[nH]c3c(Cl)cccc23)NC(=O)[C@H](Cc2ccc(C(=O)O)cc2)NC(=O)[C@H](CC(N)=O)NC(=O)[C@H](CCC(=O)O)N(C)C(=O)[C@H](Cc2c[nH]c3ncccc23)NC(=O)[C@@H]2CC[C@@H](O)CN2C(=O)[C@H](Cc2ccncc2)NC1=O [SEQ ID NO. 168] ([Nle][4Pal][Pip(5R-OH)][Trp(7-aza)][NMeE]N[Phe(4-COOH)][Trp(7-Cl)][αMeS][Phe(4-CONH2)]Y[Sar][Trp(βS-Me,7-OMe)]C-NH2; linker N-14 via X7) |  | > 1000 | 0.3
5 | COc1cccc2c([C@H](C)[C@@H]3NC(=O)CN(C)C(=O)[C@H](Cc4cccc(C(N)=O)c4)NC(=O)[C@H](Cc4ccc(C(N)=O)cc4)NC(=O)[C@](C)(CO)NC(=O)[C@H](Cc4c[nH]c5c(Cl)cccc45)NC(=O)[C@H](Cc4ccncc4)NC(=O)[C@H](CC(N)=O)NC(=O)[C@H]4C[C@H](O)CN4C(=O)[C@H](Cc4c[nH]c5ccccc45)NC(=O)[C@@H]4CC[C@@H](O)CN4C(=O)[C@H](Cc4ccncc4)NC(=O)[C@H](CCNC(=O)c4ccon4)NC(=O)[C@@H]4CC[C@@H](C4)NC3=O)c[nH]c12 [SEQ ID NO. 169] (cyclo([4Pal][Trp(7-Cl)][αMeS][Phe(4-CONH2)][Phe(3-CONH2)][Sar][Trp(βS-Me,7-OMe)][X1][Dab](Isoxazole(3-carbonyl))[4Pal][Pip(5R-OH)]W[dHyp]N)) | 0.16 | > 1000 | 
